According to patent US11865128B2, “Aminoglycosides and uses thereof in treating genetic disorders” (Technion Research & Development Foundation Limited, priority 2010, dated 2024):
≈ marks a conversion by molar mass, not a printed value. Entries after “also recorded” stand apart in the source; their conditions may differ. Read-outs that look alike come from different tables or passages of the source.

Experiments:
[1] = system: B. subtilis ATCC6633; assay: Antibacterial activity MIC, double-microdilution; format: cell-based, Bacillus subtilis; conditions: Bacillus subtilis, ATCC6633, read-out: Antibacterial activity MIC B. subtilis ATCC6633
[2] = system: E. coli R477/100; assay: Antibacterial activity MIC, double-microdilution; format: cell-based, Escherichia coli; conditions: Escherichia coli, R477/100, read-out: Antibacterial activity MIC E. coli R477/100
[3] = biological target: Prokaryotic system (prokaryotic ribosome); assay: Prokaryotic translation inhibition, coupled transcription/translation, luciferase detection; format: biochemical
Experimental: Prokaryotic and eukaryotic translation inhibition was quantified in coupled transcription/translation assays by using active luciferase detection, performed as described hereinabove. […] All the experiments were performed in duplicates and analogous results were obtained in three different experiments. In all biological tests, all tested aminoglycosides were in their sulfate salt forms. The concentrations reported refer to that of the free amine form of each aminoglycoside.
In all biological experiments conducted, all tested aminoglycosides were in their sulfate salt forms. The concentrations reported in Table 3 refer to that of the free amine form of each aminoglycoside. Prokaryotic and eukaryotic translation inhibition was quantified in coupled transcription/translation assays as previously described. The half-maximal concentration (IC50) values were obtained from fitting concentration response curves to the data of at least three independent experiments, using GraFit 5 software. All the experiments were performed in duplicates and analogous results were obtained in three different experiments.

[4] = biological target: Eukaryotic system (eukaryotic cytoplasmic ribosome); assay: Eukaryotic translation inhibition, coupled transcription/translation, luciferase detection; format: biochemical; conditions: for Prokaryotic versus Eukaryotic selectivity IC50^Euk/IC50^Pro: ratio of eukaryotic to prokaryotic translation inhibition IC50; for more specific to the eukaryotic ribosome than parent (NB30 or NB54): comparison of eukaryotic IC50 values with parent structure
Excerpt: Prokaryotic and eukaryotic translation inhibition was quantified in coupled transcription/translation assays by using active luciferase detection, performed as described hereinabove. […] In all biological tests, all tested aminoglycosides were in their sulfate salt forms. The concentrations reported refer to that of the free amine form of each aminoglycoside.
In all biological experiments conducted, all tested aminoglycosides were in their sulfate salt forms. The concentrations reported in Table 3 refer to that of the free amine form of each aminoglycoside. Prokaryotic and eukaryotic translation inhibition was quantified in coupled transcription/translation assays as previously described. The half-maximal concentration (IC50) values were obtained from fitting concentration response curves to the data of at least three independent experiments, using GraFit 5 software.

[5] = Cell toxicity LC50 in HFF cells; format: cell-based; conditions: human
Experimental: (§1) In order to ensure suitable cell viability for each of the tested compounds at the concentrations tested, cell toxicity was evaluated for each compound by measuring the half-maximal-lethal concentration value (LC50 values) in HEK-293 and HFF (human foreskin fibroblasts) cells.
(§2) The percentages of cell viability were calculated as the ratio between the numbers of living cells in cultures grown in the presence of the tested compounds, versus cultures grown under the identical protocol but without the tested compound. The results represent averages of at least three independent experiments.
(§3) The half-maximal lethal concentration (LC50) values were obtained from fitting concentration-response curves to the data of at least three independent experiments, using GraFit 5 software.

[6] = Cell toxicity LC50 in HEK-293 cells; format: cell-based; conditions: human
Experimental: as §1, §2, §3

[7] = system: nonsense mutation constructs R3X, R245X, G542X, W1282X, Q70X, R3381X (PCDH15, CFTR, IDUA, Dystrophin); assay: In vitro stop codon readthrough assay, p2Luc dual luciferase, TNT reticulocyte lysate; format: biochemical; conditions: cell-free, mutations tested; comparison in words from FIGS. 2, 3, 5-7
Excerpt: DNA fragments derived from PCDH15, CFTR, Dystrophin and IDUA cDNAs, including the tested nonsense mutation or the corresponding wild type (wt) codon, and four to six upstream and downstream flanking codons were created by annealing following pairs of complementary oligonucleotides:
The fragments were inserted in frame into the polylinker of the p2Luc plasmid between either BamHI and SacI (p.R3X and p.R245X), or SalI and SacI (all the rest) restriction sites.
For the in vitro readthrough assays, the obtained plasm ids, with addition of the tested aminoglycosides were transcribed and translated using the TNT Reticulocyte Lysate Quick Coupled Transcription/Translation System. Luciferase activity was determined after 90 minutes of incubation at 30° C., using the Dual Luciferase Reporter Assay System (Promega™).
Initially, the influence of the chiral C5″-methyl group on readthrough potential was evaluated on the pseudo-trisaccharides NB118 and NB119 by using a dual luciferase reporter assay system as described hereinabove. Briefly, DNA fragments were cloned between BamHI and SacI restriction sites of the p2luc vector and the obtained constructs were transcribed and translated using TNT quick coupled transcription/translation system. The amount of the translated products was evaluated using the dual luciferase reporter assay system and used to calculate the suppression level.

[8] = system: nonsense mutation constructs R3X, R245X, Q70X, W1282X, G542X in HEK-293 cells; assay: Ex vivo stop codon readthrough assay, p2luc constructs transfected to HEK-293 cells; format: cell-based, human; conditions: ex vivo in HEK-293, all the mutations tested, FIGS. 4, 8-10
Experimental: For the ex vivo readthrough assays, the constructs harboring the R3X, R245X, Q70X and W1282X mutations were transfected to HEK-293 cells with Lipofectamine 2000 (Invitrogen) and addition of the tested compounds was performed 6 hours post transfection. The cells were harvested following 16 hours of incubation with the tested aminoglycosides. Stop codon readthrough was calculated as previously described (see, Grentzmann, G. et al., RNA, 1998, 4, p. 479).
The constructs were transfected into a human embryonic kidney cell line (HEK-293) and incubated with varying concentrations of NB122, NB123, NB54 and the control drug gentamicin, and the results are presented in FIGS. 4A-D.
As described hereinabove, the constructs of p2luc plasmid harboring the R3X, R245X, Q70X and W1282X mutations were transfected to HEK-293 cells using lipofectamine2000 and the tested compounds were added 6 hours post transfection. Cells were harvested after 16 hours incubation and luciferase activity was determined using the dual luciferase reporter assay system (Promega™). Stop codon readthrough was calculated as described previously, and the results are averages of at least three independent experiments.

[9] = Table 3, read-out: Translation Inhibition IC50^Pro
[10] = Table 3, read-out: Translation Inhibition IC50^Euk
[11] = Table 1, free amine concentration, sulfate salts tested
[12] = Table 1, read-out: Translation inhibition Prokaryotic system IC50
[13] = Table 1, read-out: Translation inhibition Eukaryotic System IC50
[14] = HFF (human foreskin fibroblast) cells, Table 1, read-out: Cell toxicity LC50 HFF
[15] = HEK-293 cells, Table 1, read-out: Cell toxicity LC50 HEK-293

| Structure (SMILES) | IC50 [3, 9] [µM] | IC50 [4, 10] [µM] | Prokaryotic versus Eukaryotic selectivity IC50^Euk/IC50^Pro [4] | in vitro readthrough activity (stop codon suppression level) [7] | observed efficacy of aminoglycoside-induced readthrough, order [8] | MIC [1, 11] [µM] | MIC ([2]; Table 1) [µM] | IC50 [3, 12] [µM] | IC50 [4, 13] [µM] | CC50 [5, 14] [µM] | CC50 [6, 15] [µM] | other results |
| --- | --- | --- | --- | --- | --- | --- | --- | --- | --- | --- | --- | --- |
| C[C@H](N)[C@H]1O[C@@H](OC2C(O)[C@H](N)CC(N)[C@H]2O[C@H]2OC([C@@H](C)O)[C@@H](O)C(O)C2N)C(O)C1O (stereo partly drawn) [NB124, 6′-(R)-Methyl-5-O-(5-amino-5,6-dideoxy-α-L-talofuranosyl)-Paromamine] | 1.1 ± 0.185 | 1.49 ± 0.08 | 1.3 | improved significantly compared to that of the clinical drug gentamicin | NB124>NB125>NB74>gentamicin | – | – | – | – | – | – | MIC ([1]; Table 2): 96 µM (≈ 46.3 µg/mL); MIC ([2]; Table 2): 768 µM (≈ 371 µg/mL); IC50 ([3]; Table 2, read-out: Translation Inhibition Prokaryotic system IC50): 1.1 ± 0.185 µM; IC50 ([4]; Table 2, read-out: Translation Inhibition Eukaryotic System IC50): 1.49 ± 0.08 µM; CC50 ([5]; HFF (human foreskin fibroblast) cells, Table 2, read-out: Cell toxicity LC50 HFF): 4750 ± 330 µM; CC50 ([6]; HEK-293 cells, Table 2, read-out: Cell toxicity LC50 HEK-293): 5400 ± 450 µM |
| NC[C@@H]1O[C@H](O[C@H]2[C@@H](O)[C@H](O[C@@H]3[C@@H](O)[C@H](N)C[C@H](N)[C@H]3O[C@H]3O[C@H](CO)[C@@H](O)[C@H](O)[C@H]3N)O[C@@H]2CO)[C@H](N)[C@@H](O)[C@@H]1O [Paromomycin, reference compound] | 0.051 ± 0.005 | 57 ± 4 | 1,118 | – | – | 1.2 | 22 (≈ 13.5 µg/mL) | 0.051 ± 0.005 | 57 ± 4 | – | – | more selective to prokaryotic versus eukaryotic ribosome [4]: 1,118 fold; CC50 [5]: 3100 ± 400 µM; CC50 [6]: 4100 ± 500 µM |
| C[C@@H](N)[C@H]1O[C@@H](OC2C(O)[C@H](N)CC(N)[C@H]2O[C@H]2OC(CO)[C@@H](O)C(O)C2N)C(O)C1O (stereo partly drawn) [NB119, 5-O-(5-Amino-5,6-dideoxy-β-D-allofuranosyl)-paromamine] | 2.13 ± 0.478 | 28 ± 1.1 | 13 | comparatively small | – | 78 | 4990 (≈ 2340 µg/mL) | 2.13 ± 0.478 | 28 ± 1.1 | 20100 ± 600 | 19800 ± 400 | – |
| C[C@H](N)[C@H]1O[C@@H](OC2C(O)[C@H](NC(=O)[C@@H](O)CCN)CC(N)[C@H]2O[C@H]2OC(CO)[C@@H](O)C(O)C2N)C(O)C1O (stereo partly drawn) [NB122, 5-O-(5-Amino-5,6-dideoxy-α-L-talofuranosyl)-1-N—[(S)-4-amino-2-hydroxy-butanoyl]paromamine] | 2.27 ± 0.196 | 5.2 ± 0.7 | 2.3 | induced the highest level of readthrough | NB122≥NB123>NB54>gentamicin | 33 | 1070 (≈ 608 µg/mL) | 2.27 ± 0.196 | 5.2 | 8100 ± 1400 | 10100 | more specific to the eukaryotic ribosome than parent (NB30 or NB54) [4]: 4.6 fold |
| C[C@@H](N)[C@H]1O[C@@H](OC2C(O)[C@H](NC(=O)[C@@H](O)CCN)CC(N)[C@H]2O[C@H]2OC(CO)[C@@H](O)C(O)C2N)C(O)C1O (stereo partly drawn) [NB123, 5-O-(5-Amino-5,6-dideoxy-β-D-allofuranosyl)-1-N—[(S)-4-amino-2-hydroxy-butanoyl] paromamine] | 0.811 ± 0.059 | 4.6 ± 0.6 | 5.7 | – | NB122≥NB123>NB54>gentamicin | 33 | 1060 (≈ 602 µg/mL) | 0.811 ± 0.059 | 4.6 ± 0.6 | 19300 ± 1500 | 13900 ± 1300 | – |
| C[C@H](N)[C@H]1O[C@@H](OC2C(O)[C@H](N)CC(N)[C@H]2O[C@H]2OC(CO)[C@@H](O)C(O)C2N)C(O)C1O (stereo partly drawn) [NB118, 5-O-(5-Amino-5,6-dideoxy-α-L-talofuranosyl)-paromamine] | 1.96 ± 0.206 | 15.5 ± 1.3 | 7.9 | significantly better than that of the clinical drug gentamicin | – | 83 | 2660 (≈ 1250 µg/mL) | 1.96 ± 0.206 | 16 | 21800 ± 500 | 23500 | more specific to the eukaryotic ribosome than parent (NB30 or NB54) [4]: 1.9 fold |
| NC1C(OCOC2C(N)[C@H](O[C@H]3C(N)C[C@H](N)C(O)C3O)OC(CO)[C@@H]2O)[C@H](O)C(CO)O[C@@H]1O[C@@H]1C(N)C[C@@H](N)C(O)C1O (stereo partly drawn) [NB33, reference compound] | – | – | about 2 | essentially no readthrough activity; also recorded: almost no readthrough activity | – | – | – | – | – | – | – | – |
